Assay [1] concerns HIV-1 and HIV-2 T cell-tropic laboratory strains as well as clinical isolates of different subtypes. The conditions noted are these: HIV-1 and HIV-2 laboratory strains and clinical isolates; cited from earlier work.
In the next assay the test system is ADA-M R5 HIV. The experiment in a line: Treatment of PBMCs infected with ADA-M R5 HIV strain. The assay is classed as cell-based. On the procedure: For that purpose, peripheral blood mononuclear cells (PBMCs) of five healthy donors have been isolated by centrifugation on a FICOLL gradient. The cells have then been cultivated at 37° C., 5% CO2 to a density of 1×10^6 cells/mL in RPMI Glutamax medium (Life Technologies Ref 61870-010) supplemented with 10% fetal calf serum (FCS) (Thermo Fischer Ref SV30160.03) 1000 U/mL of IL2 (Peprotech Ref 200-02) and […] of PHA (Roche ref 1249738). Three days later, cells have been pooled and resuspended to a density of 1×10^6 cells/mL in RPMI Glutamax medium supplemented with 10% fetal calf serum (FCS) 1000 U/mL of IL-2 and distributed in 12 wells plates (Falcon Ref 353043) with 1.2 mL/well (4 wells per condition).
HIV-1 infection has been performed with 1 ng of Ada-M R5 HIV strain/well. Cells were treated for 6 days with 1.2 mL/well of 60 μM solution of 8-chloro-N-[4-(trifluoromethoxy)phenyl]quinolin-2-amine or with 0.12% DMSO (Sigma Ref D4818 as negative control).

SMILES strings stand for the structures.

Regarding `FC(F)(F)Oc1ccc(Nc2ccc3cccc(Cl)c3n2)cc1` [8-chloro-N-[4-(trifluoromethoxy)phenyl]quinolin-2-amine], the “inhibition of replication in PBMC, active concentrations” value in assay [1] is reported as “nM concentrations range”. Also, the “effect on viruses in infected PBMCs” value in the assay on ADA-M R5 HIV was “removal of the viruses”.

Source of the values: patent publication US11441181B2, “miRNA-124 as a biomarker” (priority 2013, dated 2022).
